In patent publication US20220289708A1, “SUBSTITUTED N-PHENYL URACILS, SALTS THEREOF AND THEIR USE AS HERBICIDAL AGENTS” (Bayer Aktiengesellschaft, priority 2019, published 2022):

What was measured:
Assay type in all cases: in vivo
Abutilon theophrasti = assay: Post-emergence herbicidal action; settings: rated visually after about 3 weeks vs untreated controls
Summary of the method: (§1)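 Post-em spray, one-leaf stage (2–3 wk post-sowing), sandy loam, greenhouse. WP/EC in aqueous suspension/emulsion + 0.5% additive, 600 l/ha water, ≤20 g/ha. Visual % rating ~3 wk vs untreated: 100% dead, 0% like control.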

Alopecurus myosuroides = assay: Post-emergence herbicidal action; settings: rated visually after about 3 weeks vs untreated controls
Summary of the method: as §1

Amaranthus retroflexus = assay: Post-emergence herbicidal action; settings: rated visually after about 3 weeks vs untreated controls
Summary of the method: as §1

Avena fatua = assay: Post-emergence herbicidal action; settings: rated visually after about 3 weeks vs untreated controls
Summary of the method: as §1

Digitaria sanguinalis = assay: Post-emergence herbicidal action; settings: rated visually after about 3 weeks vs untreated controls
Summary of the method: as §1

Echinochloa crus-galli = assay: Post-emergence herbicidal action; settings: rated visually after about 3 weeks vs untreated controls
Summary of the method: as §1

Hordeum murinum = assay: Post-emergence herbicidal action
Summary of the method: as §1

Lolium rigidum = assay: Post-emergence herbicidal action; settings: rated visually after about 3 weeks vs untreated controls
Summary of the method: as §1

Matricaria inodora = assay: Post-emergence herbicidal action; settings: rated visually after about 3 weeks vs untreated controls
Summary of the method: as §1

Pharbitis purpurea = assay: Post-emergence herbicidal action; settings: rated visually after about 3 weeks vs untreated controls
Summary of the method: as §1

Polygonum convolvulus = assay: Post-emergence herbicidal action
Summary of the method: as §1

Setaria viridis = assay: Post-emergence herbicidal action; settings: rated visually after about 3 weeks vs untreated controls
Summary of the method: as §1

Stellaria media = assay: Post-emergence herbicidal action; settings: application rate 5 g/ha, rated visually after about 3 weeks vs untreated controls
Summary of the method: as §1

Veronica persica = assay: Post-emergence herbicidal action
Summary of the method: as §1

Viola tricolor = assay: Post-emergence herbicidal action
Summary of the method: as §1

Oryza sativa = assay: Post-emergence crop plant compatibility; settings: application rate 5 g/ha
Experimental: a. Post-Emergence Herbicidal Action and Crop Plant Compatibility
Seeds of monocotyledonous and dicotyledonous weeds and crop plants were placed in sandy loam in plastic or wood-fiber pots, covered with soil and cultivated in a greenhouse under controlled growth conditions. 2 to 3 weeks after sowing, the test plants were treated at the one-leaf stage. The compounds of the invention, formulated in the form of wettable powders (WP) or as emulsion concentrates (EC), were then sprayed onto the green parts of the plants as aqueous suspension or emulsion with addition of 0.5% additive at a water application rate of 600 l/ha (converted). After the test plants had been kept in the greenhouse under optimum growth conditions for about 3 weeks, the activity of the preparations was rated visually in comparison to untreated controls. For example, 100% activity=the plants have died, 0% activity=like control plants.
Tables A16 to A19 below show the crop plant compatibilities of selected compounds of the general formula (I) according to Tables I.1 to I.36 at an application rate corresponding to 5 g/ha or 20 g/ha, which were obtained in experiments according to the experimental procedure mentioned above. Here, the observed effects on selected crop plants are stated in comparison to the untreated controls (values in %).

SMILES	Abutilon theophrasti (efficacy in %) (Abutilon theophrasti; application rate 20 g/ha) [%]	Alopecurus myosuroides (efficacy in %) (Alopecurus myosuroides; application rate 20 g/ha) [%]	Amaranthus retroflexus (efficacy in %) (Amaranthus retroflexus; application rate 20 g/ha) [%]	Avena fatua (efficacy in %) (Avena fatua; application rate 20 g/ha) [%]	Digitaria sanguinalis (efficacy in %) (Digitaria sanguinalis; application rate 20 g/ha) [%]	Echinochloa crus-galli (efficacy in %) (Echinochloa crus-galli; application rate 20 g/ha) [%]	Lolium rigidum (efficacy in %) (Lolium rigidum; application rate 20 g/ha) [%]	Matricaria inodora (efficacy in %) (Matricaria inodora; application rate 5 g/ha) [%]	Pharbitis purpurea (efficacy in %) (Pharbitis purpurea; application rate 5 g/ha) [%]	Polygonum convolvulus (efficacy in %) (Polygonum convolvulus; application rate 5 g/ha) [%]	Setaria viridis (efficacy in %) (Setaria viridis; application rate 5 g/ha) [%]	Stellaria media (efficacy in %) (Stellaria media) [%]	Veronica persica (efficacy in %) (Veronica persica; application rate 5 g/ha) [%]	Viola tricolor (efficacy in %) (Viola tricolor; application rate 5 g/ha) [%]	Abutilon theophrasti (efficacy in %) (Abutilon theophrasti; application rate 5 g/ha) [%]	Alopecurus myosuroides (efficacy in %) (Alopecurus myosuroides; application rate 5 g/ha) [%]	Amaranthus retroflexus (efficacy in %) (Amaranthus retroflexus; application rate 5 g/ha) [%]	Digitaria sanguinalis (efficacy in %) (Digitaria sanguinalis; application rate 5 g/ha) [%]	Echinochloa crus-galli (efficacy in %) (Echinochloa crus-galli; application rate 5 g/ha) [%]	Hordeum murinum (efficacy in %) (Hordeum murinum; application rate 20 g/ha) [%]	further results
COCCOC(=O)COc1ncccc1Sc1cc(-n2c(=O)cc(C(F)(F)F)n(C)c2=O)c(F)cc1Cl [I.1-1, 2-Methoxyethyl {[3-({2-chloro-4-fluoro-5-[3-methyl-2,6-dioxo-4-(trifluoromethyl)-3,6-dihydropyrimidin-1(2H)-yl]phenyl}sulfanyl)pyridin-2-yl]oxy}acetate]	100	80	100	80	100	100	80	100	100	100	100	90	100	100							Hordeum murinum (efficacy in %) (Hordeum murinum; application rate 5 g/ha): 80%
Cn1c(C(F)(F)F)cc(=O)n(-c2cc(Sc3cccnc3OCC(=O)OCC3CCCO3)c(Cl)cc2F)c1=O (stereo not drawn) [I.1-71]				80				100	100	100	100	100	100	100	100	80	100	100	100	80	Lolium rigidum (efficacy in %) (Lolium rigidum; application rate 5 g/ha): 100%
COCCOC(=O)CSc1ncccc1Sc1cc(-n2c(=O)cc(C(F)(F)F)n(C)c2=O)c(F)cc1Cl [I.10-1]				80				90	80	100	80	100		100	80	80	80	80	100	90	Veronica persica (efficacy in %) (Veronica persica; application rate 20 g/ha): 90%
COCCCOC(=O)CSc1ncccc1Sc1cc(-n2c(=O)cc(C(F)(F)F)n(C)c2=O)c(F)cc1Cl [I.10-26]					100	100	80		100	100	100	100	80	100	100	80	100				Matricaria inodora (efficacy in %) (Matricaria inodora; application rate 20 g/ha): 100%
COCCOC(=O)COc1ncccc1Oc1cc(-n2c(=O)cc(C(F)(F)F)n(C)c2=O)c(F)cc1Cl [I.15-1]							100	100	100	100	100	100	100	100	100	80	100	100	100	100	Avena fatua (efficacy in %) (Avena fatua; application rate 5 g/ha): 90%
COCCCOC(=O)COc1ncccc1Oc1cc(-n2c(=O)cc(C(F)(F)F)n(C)c2=O)c(F)cc1Cl [I.15-26, 3-Methoxypropyl [(3-{2-chloro-4-fluoro-5-[3-methyl-2,6-dioxo-4-(trifluoromethyl)-3,6-dihydropyrimidin-1(2H)-yl]phenoxy}pyridin-2-yl)oxy]acetate]		90		90					100	100	100	100	100	100	100		100	100	100	100	Lolium rigidum (efficacy in %) (Lolium rigidum; application rate 5 g/ha): 80%
CCOC(COC(=O)COc1ncccc1Oc1cc(-n2c(=O)cc(C(F)(F)F)n(C)c2=O)c(F)cc1Br)OCC [I.16-422]	100	100	100	100	100	100	90														Matricaria inodora (efficacy in %) (Matricaria inodora; application rate 20 g/ha): 100%; Pharbitis purpurea (efficacy in %) (Pharbitis purpurea; application rate 20 g/ha): 100%; Polygonum convolvulus (efficacy in %) (Polygonum convolvulus; application rate 20 g/ha): 100%; Setaria viridis (efficacy in %) (Setaria viridis; application rate 20 g/ha): 100%; Veronica persica (efficacy in %) (Veronica persica; application rate 20 g/ha): 100%; Viola tricolor (efficacy in %) (Viola tricolor; application rate 20 g/ha): 100%; Oryza sativa (efficacy in %) (Oryza sativa): 20%
Cn1c(C(F)(F)F)cc(=O)n(-c2cc(Oc3cc(F)cnc3OCC(=O)OCC#N)c(Cl)cc2F)c1=O [I.36-176]	100	100	100	80	100	100	80														Matricaria inodora (efficacy in %) (Matricaria inodora; application rate 20 g/ha): 90%; Pharbitis purpurea (efficacy in %) (Pharbitis purpurea; application rate 20 g/ha): 100%; Polygonum convolvulus (efficacy in %) (Polygonum convolvulus; application rate 20 g/ha): 100%; Setaria viridis (efficacy in %) (Setaria viridis; application rate 20 g/ha): 100%; Veronica persica (efficacy in %) (Veronica persica; application rate 20 g/ha): 90%; Viola tricolor (efficacy in %) (Viola tricolor; application rate 20 g/ha): 100%; Oryza sativa (efficacy in %) (Oryza sativa): 20%
